Data: PubChem BioAssay (NCI)
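Exposure lasted 48 hours, with cells grown in 96-well plates and compounds tested at five concentrations. TGI denotes the concentration required for complete inhibition of growth.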

Experiments:
Assay in all cases: NCI anticancer screen, dose series, 48 h
HL-60(TB) leukemia = system: HL-60(TB) leukemia
NCI-H23 lung = system: NCI-H23 lung
SR leukemia = system: SR leukemia
786-0 renal = system: 786-0 renal
EKVX NSCLC = system: EKVX NSCLC
HOP-62 NSCLC = system: HOP-62 NSCLC
KM12 colon = system: KM12 colon
DU-145 prostate = system: DU-145 prostate
UO-31 renal = system: UO-31 renal
MDA-MB-435 = system: MDA-MB-435
U251 CNS = system: U251 CNS
ACHN renal = system: ACHN renal
SF-539 CNS = system: SF-539 CNS
CAKI-1 renal = system: CAKI-1 renal
SF-295 CNS = system: SF-295 CNS
PC-3 prostate = system: PC-3 prostate
A498 renal = system: A498 renal
HCC-2998 colon = system: HCC-2998 colon
RPMI-8226 leukemia = system: RPMI-8226 leukemia
HT29 colon = system: HT29 colon

Structure (SMILES)	TGI (HL-60(TB) leukemia) [µM]	TGI (NCI-H23 lung) [µM]	TGI (SR leukemia) [µM]	TGI (786-0 renal) [µM]	TGI (EKVX NSCLC) [µM]	TGI (HOP-62 NSCLC) [µM]	TGI (KM12 colon) [µM]	TGI (DU-145 prostate) [µM]	TGI (UO-31 renal) [µM]	TGI (MDA-MB-435) [µM]	TGI (U251 CNS) [µM]	TGI (ACHN renal) [µM]	TGI (SF-539 CNS) [µM]	TGI (CAKI-1 renal) [µM]	TGI (SF-295 CNS) [µM]	TGI (PC-3 prostate) [µM]	TGI (A498 renal) [µM]	TGI (HCC-2998 colon) [µM]	TGI (RPMI-8226 leukemia) [µM]	TGI (HT29 colon) [µM]
Cc1ccc(/C(Cl)=C/C=C(C#N)C#N)cc1	36.9	3.36	7.47	3.77	27.5	3.88	21	23.9	> 100	6.94	18.4	5.29	6.37	14.4	26.9	> 100				
CCOCc1c(C)cc(C)c(C2C(C(=O)c3ccccc3)N3c4ccccc4C=CC3C2(C#N)C(=O)OCC)c1C (stereo unspecified)	> 100	> 100	> 100	> 100	67.3		54.9	> 100	> 100	> 100	> 100	> 100		> 100	> 100	> 100	> 100	47.8	> 100	> 100
O=C1c2[nH]c3ccc(Br)cc3c2CCN1Cc1ccc(Cl)cc1	99.1	32.3	44.5	24.1	> 100	26.4	36.1	28.3	31.1	28.6	26.8	22.7	25.5	34.4	26.2	19.4	34.1	28.3		> 100
Nc1nc(I)nc2c1ncn2C1OC(COS(N)(=O)=O)C(O)C1O (stereo unspecified)		0.0324	< 0.01	0.0297	0.0573	0.0836	0.0297	< 0.0193	0.0653	0.0138	0.0243	0.211	< 0.014	0.129	0.168	0.0423	< 0.01	0.0311	0.172	0.0353
CN(C)c1ccc(/C=C2/NC(=S)NC2=O)cc1	51	> 100	> 100	> 100	> 100	> 100		> 100	> 100	> 100	> 100	> 100	> 100	> 100	> 100	> 100		> 100	> 100	> 100
O=C1CN(C(=O)C2CCCN2C(=O)C2CCCN2)C(=O)CN1 (stereo unspecified)	> 100	> 100	> 100	> 100	> 100	> 100	> 100	> 100	> 100	> 100	> 100	> 100		> 100	> 100	> 100	> 100	> 100	> 100	> 100
O=c1[nH]c(=O)n(CCOc2ccccc2)cc1Nc1ccccc1		> 100	> 100	> 100	> 100	87.4	> 100	> 100	> 100	> 100	> 100	> 100		> 100	> 100	> 100	> 100	> 100	> 100	> 100
N#CC12CNCC1CN=N2 (stereo unspecified)	> 100	> 100	> 100	> 100	> 100	> 100	> 100	> 100	> 100	> 100	> 100	> 100		> 100	> 100	> 100	> 100	> 100		> 100
N#CC1C(=O)N(c2ccccc2)NC12OC(=O)c1ccncc12 (stereo unspecified)	> 20	> 20	> 20	> 20	> 20			> 20	> 20	> 20	> 20	> 20	> 20	> 20	> 20	> 20	> 20	> 20	> 20	> 20
O=S(=O)(SC1=NCCN1)c1ccc2ccccc2c1	38.4	61.8		97.1	> 100	69.5	44.1	> 100	> 100	42.8	54.1	> 100	63.7	> 100	65.8	> 100	> 100	38.7	64	40
O=c1oc2ccccc2cc1-c1csc(Nc2ccc(F)cc2)n1	35.3	11		3.17	8.63	8.22	18.4	11.3	6.42	17	9.55	26.3	3.5	10.6	10.7	19.3	5.09	17.1	4.44	14.2
CC(=O)c1sc2c(c1OC(=O)c1ccco1)c(=O)n(-c1ccccc1)c(=S)n2-c1ccccc1	45	73.8	72.2	> 100	59.1	66.8	48.5	76.9	49.3	61.7	88.1		20.6	> 100	49.2	64.2			41.6	> 100
C=C1[C@H](OC(C)=O)[C@H]2[C@@H](OC(C)=O)[C@@H](C)C[C@]2(C)C(=O)[C@H](C)/C=C/C(C)(C)C(=O)[C@H](OCC(C)C)[C@H]1OC(C)=O	> 25	> 25	> 25	> 25	> 25	> 25	> 25	> 25	> 25	> 25	> 25	> 25	> 25	> 25	> 25	> 25	> 25	> 25		
